Data set [1] relates to bemegride induced convulsions in mice. The experiment in a line: Anticonvulsive effect, bemegride induced convulsions. It counts as in vivo. Conditions: Mus musculus, po, 60 minutes pretreatment. How it is done: (§1) In Table I the anticonvulsive effect of some compounds of the invention in the electroshock test is presented [J. Pharmacol. Exp. Ther. 106, 319 (1952)]. The anticonvulsive effect was also studied in convulsions induced by various chemical agents, e. g. pentetrazole [J. Pharmacol. Exp. Ther 108, 168 (1953)], strychnine [J. Pharmacol. Exp. Ther. 129, 75 (1960)], bemegride, nicotine, bicuculline, 4-aminopyridine and 3-mercaptopropionic acid. The pretreatment period was 60 minutes. The test compounds were administered orally in 3 doses to 10 male CD 1 mice in each dose group.

Data set [2] concerns pentetrazole induced convulsions in mice. The data set is described as follows: Anticonvulsive effect, pentetrazole induced convulsions. It counts as in vivo. Conditions: Mus musculus, po, 60 minutes pretreatment. On the procedure:
as §1

Data set [3] deals with nicotine induced convulsions in mice. The data set is described as follows: Anticonvulsive effect, nicotine induced convulsions. Format: in vivo. The settings on record: Mus musculus, po, 60 minutes pretreatment. On the procedure:
as §1

For data set [4], the system named is electroshock convulsions in mice. The data set is described as follows: Anticonvulsive effect, electroshock test. Format: in vivo. The settings on record: Mus musculus, po, 60 minutes pretreatment. On the procedure:
as §1

For data set [5], the system named is AMPA receptors (kainate induced current, Purkinje cells). The experiment in a line: Inhibition of kainate induced whole cell currents on Purkinje cells of the cerebellum. It counts as cell-based. The settings on record: 100 μM kainate, read-out: IC50 against kainate, whole cell currents. How it is done: (§2) Inhibition of AMPA and Kainate Induced Transmembrane Currents
(§3) The effect of the compound of Example 17 on whole cell currents induced by 100 μM kainate or 5 μM AMPA, resp., was studied on Purkinje cells of the cerebellum according to the method of Bleakman et al. [Neuropharmacology 12, 1689 (1996)]. […] In this preparation kainate was also exerting its effect through the activation of AMPA receptors.

In data set [6] the test system is CD 1 mice. The experiment in a line: Muscle relaxant activity, rotarod test. The settings on record: Mus musculus, ip. It counts as in vivo. How it is done:
(§4) The muscle relaxant activity of the compounds of general formula (I) was measured in the “inclined screen” test of Randall [J. Pharmacol. Exp. Ther. 129, 163 (1960)] and in the rotarod test [J. Am. Pharm. Assoc. 46, 208 (1975)]. The compounds were administered in 3 i. p. doses to ten CD 1 mice in each dose group.
(The rotarod test checks motor coordination on a turning rod.)

The test system of data set [7] is CD 1 mice. The data set is described as follows: Muscle relaxant activity, inclined screen test. Format: in vivo. Conditions: Mus musculus, ip. How it is done:
as §4

The test system of data set [8] is AMPA (5 μM) induced spreading depression, isolated chicken retina. The experiment in a line: Inhibition of AMPA induced spreading depression in the isolated chicken retina preparation. The settings on record: Gallus gallus. It counts as cell-based. An excerpt:
(§5) In the first model the “spreading depression” inducing effect of glutamate agonists was studied, while in the second model the transmembrane ion current induced by the activation of glutamate receptors was directly measured.
(§6) Inhibition of AMPA and Kainate Induced “Spreading depression” in the Isolated Chicken Retina Preparation
(§7) The kainate and AMPA antagonizing effect was studied in vitro in the retinal “spreading depression” model [M. J. Sheardown: Brain Res. 607, 189 (1993)]. The AMPA/kainate antagonists extend the latency of the kainate (5 μM) or AMPA (5 μM) induced development of “spreading depression”.

Data set [9] concerns bicuculline induced convulsions in mice. The data set is described as follows: Anticonvulsive effect, bicuculline induced convulsions. It counts as in vivo. Conditions: Mus musculus, po, 60 minutes pretreatment. On the procedure:
as §1

Data set [10] has as its system anesthesized rats, middle cerebral artery occlusion. The experiment in a line: Inhibition of focal ischemia, middle cerebral artery occlusion (MCAO) test. Conditions: for Infarcted area in percent of cerebral hemosphere / Score of infarcted area (size of infarcted area) / Change % of size of infarcted area: MCAO; for Change % of size of infarcted area: versus vehicle. It counts as in vivo. How it is done: The focal ischemia inhibiting effect of the compound of Example 17 was studied on the “middle cerebral artery occlusion” (MCAO) test in anesthesized rats. […] After histological processing the developed infarcted area was measured by a computerized scanner program [R. T. Bartus: Stroke 11, 2265 (1994) and S. G. Sydserff: Brit. J. Pharmacol. 114, 1631 (1995)].

The test system of data set [11] is kainate (5 μM) induced spreading depression, isolated chicken retina. The experiment in a line: Inhibition of kainate induced spreading depression in the isolated chicken retina preparation. It counts as cell-based. The settings on record: Gallus gallus.
From the text: as §5, §6, §7

Data set [12] concerns AMPA receptors (AMPA induced current, Purkinje cells). The data set is described as follows: Inhibition of AMPA induced whole cell currents on Purkinje cells of the cerebellum. Format: cell-based. How it is done: as §2, §3

Usually ED50 stands for the dose at which the effect has come halfway, by size or by number of responders. Turning to `O=C1NC(=O)C(c2ccccc2)(c2ccccc2)N1` [Phenytoin, reference compound], the ED50 in [1] is more than 200 mg/kg; in data set [2], more than 400 mg/kg; in [3] it was 12 mg/kg; in data set [4], 10 mg/kg.

What is called IC50 is the concentration at which inhibition is half-maximal. What is called melting point is the temperature of the solid-liquid transition. Consider `Cc1cn2c(n1)Cc1ccc(Cl)cc1C(c1ccc(N)cc1)=N2` [Example 17], for which the melting point lay within 229 to 230 °C. The 50% effective dose (ED50) in data set [3] came to 13 mg/kg. Also, in data set [5], the IC50 amounted to 4.97 µM. For the same compound, in the data set with CD 1 mice [6], the ED50 came to 16 mg/kg. In the data set with CD 1 mice [7], this compound returned an ED50 of 36 mg/kg. For the same compound, the IC50 in data set [8] is 7.3 µM. The ED50 in data set [9] was 23 mg/kg. In addition, the “Rate of cerebral cell damage induced by occlusion of the middle cerebral artery” value in data set [10] (6×1 mg/kg i.v.) was “significantly reduced”. In data set [10] (6 × 1 mg/kg i.v.), the “Infarcted area in percent of cerebral hemosphere” value is on record as 13.4 ± 3.64%, the “Score of infarcted area (size of infarcted area)” value was 16122 ± 4368 and the “Change % of size of infarcted area” value was −60.2%. Besides, in data set [10] (6 × 2 mg/kg i.v.), the “Infarcted area in percent of cerebral hemosphere” value turned out to be 11.0 ± 1.93%, the “Score of infarcted area (size of infarcted area)” value was determined as 13229 ± 2313 and the “Change % of size of infarcted area” value is −67.4%. For the same compound, the ED50 in [4] was 24 mg/kg. In addition, in [11], it took 2.5 µM to reach half-maximal inhibition (IC50). Further, in data set [12] (Purkinje cells of the cerebellum, 5 μM AMPA, read-out: IC50 against AMPA, whole cell currents), the IC50 came out at 2.02 µM. Further, the “Inhibition of ion current induced by AMPA receptor activation relative to GYKI 52466” value in data set [12] (Purkinje cells, compared by IC50 values) is “twice as strongly inhibited”.

For `NCC(CC(=O)O)c1ccc(Cl)cc1` (stereo not drawn) [Baclofen, reference compound], the results for the ED50 in the data set with CD 1 mice [6] and with CD 1 mice [7] were 13 mg/kg and 26 mg/kg, respectively.
